Results as given in US12643907B2 (priority 2020, dated 2026).
Entries after “also recorded” stand apart in the source; their conditions may differ.

Legend:
mice = assay: Mouse 55° C. tail-withdrawal assay, antinociception of the compound itself (opioid agonist effects); type: in vivo; details: s.c.
MOR = molecular target: T1, MOR (Mus musculus, UniProt P42866); assay: Mouse 55° C. warm-water tail withdrawal (WWTW) assay, antagonism of the MOR agonist morphine; type: in vivo; details: for antagonism of morphine-induced antinociception at 24 h: 24 h after a 30 mg/kg s.c. treatment
T1 construct: from tissue; host or cells: living mice (in vivo)

[1] = naloxone; cited from earlier work

T1 sequence (P42866 whole entry): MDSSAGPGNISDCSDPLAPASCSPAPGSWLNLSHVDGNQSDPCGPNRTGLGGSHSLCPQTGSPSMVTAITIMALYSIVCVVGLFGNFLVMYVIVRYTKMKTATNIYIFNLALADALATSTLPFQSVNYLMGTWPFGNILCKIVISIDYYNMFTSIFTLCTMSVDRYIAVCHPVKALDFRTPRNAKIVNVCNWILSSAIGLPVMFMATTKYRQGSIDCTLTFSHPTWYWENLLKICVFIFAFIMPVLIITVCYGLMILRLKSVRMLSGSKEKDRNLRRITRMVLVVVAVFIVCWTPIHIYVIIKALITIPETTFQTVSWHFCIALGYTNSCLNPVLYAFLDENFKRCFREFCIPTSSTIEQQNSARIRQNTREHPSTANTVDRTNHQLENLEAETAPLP

Structure (SMILES): C=CCN1CCC23c4c5ccc(O)c4OC2C(N(C)CCS(=O)(=O)F)CCC3(O)C1C5 (racemic) [TJ-345]
- weak transient antinociception of compound alone (mice; >30 nmol i.c.v. or 60 mg/kg, first 40 min after treatment): ~15%
- antagonism of morphine-induced antinociception at 24 h (MOR; 30 mg/kg): only partial blockade; also recorded: only partially antagonized
- duration of blockade of opiate analgesia (MOR; doses as low as 3 nmol (i.c.v) or 30 mg/kg (s.c.)): 24 to 48 h
- doses that antagonized morphine antinociception (MOR; i.c.v. pretreatment, not 0.3 nmol): 3 to 300 nmol
- doses that antagonized morphine antinociception (MOR; s.c. pretreatment, not 1 mg/kg): 3 to 60 mg/kg

Structure (SMILES): C=CCN1CC[C@]23c4c5ccc(O)c4O[C@H]2[C@H](N(C)CCS(=O)(=O)F)CC[C@@]3(O)C1C5 [TJ-171]
- antinociception of compound alone (opioid agonist effects) (mice; doses up to 30 mg/kg): did not display antinociception; also recorded: no antinociception
- duration of MOR antagonism (MOR; 30 mg/kg, s.c.): at least 24 hours
- antagonism of morphine-induced antinociception at 24 h (MOR): fully antagonized

Structure (SMILES): C=CCN1CC[C@]23c4c5ccc(O)c4O[C@H]2C(=O)CC[C@@]3(O)[C@H]1C5 [naloxone]
- half-life [1]: 2 h
